Test results published in PubChem BioAssay (NCI).
Values joined by “and” are separate entries in the source; they are usually repeats but may differ in a detail not shown here. Identical values can stand only once.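 Cells were grown in 96-well plates and exposed to each compound for 48 hours at five concentrations; endpoints were interpolated linearly between bracketing concentrations, or set to the highest concentration if not reached. Here, GI50 denotes the concentration required for 50% inhibition of growth. TGI is the concentration that stops growth completely.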 Active and inactive are the calls of the source. Rule as the data show it: active = GI50 below about 0.43 µM; inactive = the rest.

What follows are compounds tested on MDA-MB-468 breast (assay: NCI tumour cell line growth inhibition, 48 h).

Going from CNc1cc2nc3cc(NC)c(C)cc3cc2cc1C to COc1cccc(-n2cc(-c3nc(Nc4cc(C)[nH]n4)c4ccccc4n3)nn2)c1, the GI50 rises from 242 nM to 4320 nM (18-fold).

O=C(CCCCCCN1CC(=O)N2[C@@H](c3cccc(Br)c3)c3[nH]c4ccccc4c3C[C@H]2C1=O)NO and CN1CC[C@]2(c3cccc(O)c3)CC(=O)/C(=C/c3ccccc3)[C@H]1C2 are within 1.5-fold of each other in GI50: 2090 nM for the first, 2190 nM for the second.

Compared with Nc1ccccc1NC(=O)c1ccc(CN2CCC/C(=C\c3ccccn3)C2=O)cc1, O=c1c2c(c3ccccc3n1-c1ccccc1)NC(=S)NC2c1ccc(Cl)cc1 (stereo not drawn) is 14-fold higher in GI50: 1330 nM for the first, 19000 nM for the second.

First: Cc1ccc(/C=C/C(=N/N=C(N)N)c2ccccc2)cc1
Second: CC(C)(CCN=C(N)Nc1ccccn1)c1ccc(C(F)(F)F)cc1
The GI50 of the first is 14-fold lower: 509 nM for the first, 7070 nM for the second.

Clc1nc(Cl)c2c3c(sc2n1)CCCC3 and O=[N+]([O-])c1ccc(Sc2nc(Cl)nc(NC3CCCC3)n2)cc1 are the same in GI50: 2100 nM for the first, 2100 nM for the second.

First: COc1cc2nc(-c3ccc(Cl)cc3)cc(OCCCN3CCCC3)c2cc1OC
Second: COc1cc(/C=C2\Oc3cc(OCCCN4CCCC4)ccc3C2=O)cc(OC)c1
The GI50 of the first is 2.3-fold lower: 1280 nM for the first, 2930 nM for the second.

Going from O=C(O)C1C2C=CC(C2)C1C(=O)O (stereo not drawn) to CC[C@@H](C(=O)[C@H](C)[C@H](O)[C@@H](C)[C@H]1O[C@H]([C@@H](CC)C(=O)O)CC[C@H]1C)C1O[C@]2(C=C[C@@H](O)[C@]3(CC[C@@](C)([C@H]4CC[C@](O)(CC)[C@H](C)O4)O3)O2)[C@H](C)C[C@@H]1C (stereo partly drawn), the GI50 falls from over 100000 nM to 194 nM.

First: CC1=C(C(=O)Nc2ccc3[nH]ncc3c2)C(c2ccc(Cl)c(Cl)c2)CC(=O)N1 (stereo not drawn)
Second: Cc1[nH]c(C(=O)Nc2ccccc2OC2CCNCC2)c(Cl)c1Cl
The GI50 of the first is higher: over 18000 nM for the first, 930 nM for the second.

Going from Cc1cccc2nc3cccc(C(=O)NCCNCCNCCNC(=O)c4cccc5nc6cccc(C)c6nc45)c3nc12 to COc1ccc(-c2nc(Nc3ccc(-c4nc5ccccc5[nH]4)cc3)nc(N3CCOCC3)n2)cc1, the GI50 rises from 17.2 nM to 2920 nM (170-fold).

First: CCCCCc1cc[n+](CC(=O)c2ccc([N+](=O)[O-])cc2)cc1
Second: CCCC[n+]1c(/C=C\c2c(OC)cc(OC)cc2OC)ccc2ccccc21
The GI50 of the first is 9-fold higher: 2170 nM for the first, 241 nM for the second.

First: Nc1nc2c(nnn2C2OC(CO)C(O)C2O)c(=O)[nH]1 (stereo not drawn)
Second: CCCCCCC/C=C/[C@H]1O[C@]2(O)C(=O)C=C3C[C@@H](O[C@@H]4O[C@H](CO)[C@@H](O)C(O)[C@@H]4O)C[C@@H]3[C@H]2C=C1C (stereo partly drawn)
The GI50 of the first is 7-fold lower: 488 nM for the first, 3420 nM for the second.

First: CCOC(=O)c1ccc2c(c1)nc(/C=C/c1ccc(Cl)cc1)n2-c1cc(C(C)(C)C)[nH]n1
Second: COc1ccc(-c2nn(-c3cccc(NC(=O)Nc4ccccc4)c3)cc2-c2ccncc2)cc1Cl
The GI50 of the first is 2.1-fold higher: 4680 nM for the first, 2260 nM for the second.

Compared with O=C1C(Nc2ccc(Br)cc2)=C(I)C(=O)c2ncccc21, COC(=O)c1ccc(NC2=C/C(=N/S(=O)(=O)c3ccc(C(=O)O)cc3)c3ccccc3C2=O)cc1 is 1.8-fold higher in GI50: 970 nM for the first, 1710 nM for the second.

O=C(N=Nc1c(O)[nH]c2ccccc12)c1oc2ccccc2c1CN1CCN(c2ccccc2)CC1 and O=c1c2cccc(F)c2sc2c(N3CCNCC3)nc3ccccc3c12 are within 1.5-fold of each other in GI50: 1240 nM for the first, 1460 nM for the second.

CN(C)CCC=C1c2ccccc2C(C)(C)c2ccccc21 and CSc1ccc2c(c1)N(CCC1CCCCN1C)c1ccccc1S2 (stereo not drawn) are within 1.5-fold of each other in GI50: 2590 nM for the first, 1780 nM for the second.

C=C1CC[C@@H]2[C@](C)(COC(C)=O)[C@H](OC(C)=O)CC[C@@]2(C)[C@@H]1CC(Nc1ccc(S(=O)(=O)Nc2cc(C)on2)cc1)C1=CCOC1=O (stereo partly drawn) and C=C1CCC2C3(C)COC(c4c(OC)cccc4OC)OC3CCC2(C)C1C/C=C1/C(=O)OCC1O (stereo not drawn) are within 1.5-fold of each other in GI50: 1490 nM for the first, 1470 nM for the second.

Going from Fc1ccc(-c2nn3c(-c4cc(C(F)(F)F)cc(C(F)(F)F)c4)nnc3s2)cc1 to Nc1ccc(-c2nnc(SCc3ccc(O)c4ncccc34)o2)cc1, the GI50 falls from 2530 nM to 38.7 nM (65-fold).

First: CCCCCCCCCCC/C=C\C[C@H](O)C/C=C1/C(=O)C=C[C@@H]1C/C=C\CCCC(=O)OC
Second: CCC(C)[C@H](NC(=O)NC(=O)NC(=O)CI)C(=O)OC (stereo partly drawn)
The GI50 of the first is 4.1-fold lower: 864 nM for the first, 3540 nM for the second.

Going from Clc1cc2c(nn1)Nc1ccccc1S2 to c1ccc(Nc2nc(-c3ccccn3)cs2)nc1, the GI50 falls from over 100000 nM to 1130 nM.

Going from CO[C@]12C=C/C(=C(/C(=O)OCc3cccnc3)C(=O)CCCCCCCC[C@@]3(OC)C=C/C(=C(/C(=O)OCc4cccnc4)C(=O)CCCCCCCC1)O3)O2 to NC1CCC(Nc2nc(NCc3cc(Cl)ccc3O)c3ncn(C4CCCC4)c3n2)CC1 (stereo not drawn), the GI50 falls from 919 nM to 158 nM (5.8-fold).

Going from CNc1cc2nc3cc(NC)c(C)cc3cc2cc1C to COc1cccc(-n2cc(-c3nc(Nc4cc(C)[nH]n4)c4ccccc4n3)nn2)c1, the TGI rises from 1940 nM to 15700 nM (8.1-fold).

O=C(CCCCCCN1CC(=O)N2[C@@H](c3cccc(Br)c3)c3[nH]c4ccccc4c3C[C@H]2C1=O)NO and CN1CC[C@]2(c3cccc(O)c3)CC(=O)/C(=C/c3ccccc3)[C@H]1C2 are within 1.5-fold of each other in TGI: 5470 nM for the first, 6200 nM for the second.

Compared with Nc1ccccc1NC(=O)c1ccc(CN2CCC/C(=C\c3ccccn3)C2=O)cc1, O=c1c2c(c3ccccc3n1-c1ccccc1)NC(=S)NC2c1ccc(Cl)cc1 (stereo not drawn) is higher in TGI: 3880 nM for the first, over 100000 nM for the second.

Going from Cc1ccc(/C=C/C(=N/N=C(N)N)c2ccccc2)cc1 to CC(C)(CCN=C(N)Nc1ccccn1)c1ccc(C(F)(F)F)cc1, the TGI rises from 4130 nM to 22300 nM (5.4-fold).

Compared with COc1cc2nc(-c3ccc(Cl)cc3)cc(OCCCN3CCCC3)c2cc1OC, COc1cc(/C=C2\Oc3cc(OCCCN4CCCC4)ccc3C2=O)cc(OC)c1 is 4.2-fold higher in TGI: 3110 nM for the first, 13000 nM for the second.

First: O=C(O)C1C2C=CC(C2)C1C(=O)O (stereo not drawn)
Second: CC[C@@H](C(=O)[C@H](C)[C@H](O)[C@@H](C)[C@H]1O[C@H]([C@@H](CC)C(=O)O)CC[C@H]1C)C1O[C@]2(C=C[C@@H](O)[C@]3(CC[C@@](C)([C@H]4CC[C@](O)(CC)[C@H](C)O4)O3)O2)[C@H](C)C[C@@H]1C (stereo partly drawn)
The TGI of the first is higher: over 100000 nM for the first, 1850 nM for the second.

Compared with O=[N+]([O-])c1ccc(Sc2nc(Cl)nc(NC3CCCC3)n2)cc1, NC1CCC(Nc2nc(NCc3cc(Cl)ccc3O)c3ncn(C4CCCC4)c3n2)CC1 (stereo not drawn) is 15-fold lower in TGI: 7130 nM for the first, 468 nM for the second.

Going from CC1=C(C(=O)Nc2ccc3[nH]ncc3c2)C(c2ccc(Cl)c(Cl)c2)CC(=O)N1 (stereo not drawn) to Cc1[nH]c(C(=O)Nc2ccccc2OC2CCNCC2)c(Cl)c1Cl, the TGI falls from over 25000 nM to 1900 nM.

First: Cc1cccc2nc3cccc(C(=O)NCCNCCNCCNC(=O)c4cccc5nc6cccc(C)c6nc45)c3nc12
Second: COc1ccc(-c2nc(Nc3ccc(-c4nc5ccccc5[nH]4)cc3)nc(N3CCOCC3)n2)cc1
The TGI of the first is 7.5-fold lower: 1020 nM for the first, 7650 nM for the second.

First: CCCCCc1cc[n+](CC(=O)c2ccc([N+](=O)[O-])cc2)cc1
Second: CCCC[n+]1c(/C=C\c2c(OC)cc(OC)cc2OC)ccc2ccccc21
The TGI of the first is 5.8-fold higher: 8060 nM for the first, 1380 nM for the second.

First: Nc1nc2c(nnn2C2OC(CO)C(O)C2O)c(=O)[nH]1 (stereo not drawn)
Second: CCCCCCC/C=C/[C@H]1O[C@]2(O)C(=O)C=C3C[C@@H](O[C@@H]4O[C@H](CO)[C@@H](O)C(O)[C@@H]4O)C[C@@H]3[C@H]2C=C1C (stereo partly drawn)
The TGI of the first is 2.1-fold lower: 5370 nM for the first, 11400 nM for the second.

Compared with CCOC(=O)c1ccc2c(c1)nc(/C=C/c1ccc(Cl)cc1)n2-c1cc(C(C)(C)C)[nH]n1, COc1ccc(-c2nn(-c3cccc(NC(=O)Nc4ccccc4)c3)cc2-c2ccncc2)cc1Cl is 15-fold lower in TGI: 95600 nM for the first, 6430 nM for the second.

First: O=C1C(Nc2ccc(Br)cc2)=C(I)C(=O)c2ncccc21
Second: COC(=O)c1ccc(NC2=C/C(=N/S(=O)(=O)c3ccc(C(=O)O)cc3)c3ccccc3C2=O)cc1
The TGI of the first is 2.1-fold lower: 1930 nM for the first, 4040 nM for the second.

O=C(N=Nc1c(O)[nH]c2ccccc12)c1oc2ccccc2c1CN1CCN(c2ccccc2)CC1 and O=c1c2cccc(F)c2sc2c(N3CCNCC3)nc3ccccc3c12 are within 1.5-fold of each other in TGI: 3890 nM for the first, 3100 nM for the second.

Compared with CN(C)CCC=C1c2ccccc2C(C)(C)c2ccccc21, CCN(Cc1ccccc1Cl)c1ccc(CO)c(Cl)c1 is 120-fold lower in TGI: 14000 nM for the first, 116 nM for the second.

Compared with CSc1ccc2c(c1)N(CCC1CCCCN1C)c1ccccc1S2 (stereo not drawn), Clc1cc2c(nn1)Nc1ccccc1S2 is higher in TGI: 3920 nM for the first, over 100000 nM for the second.

C=C1CC[C@@H]2[C@](C)(COC(C)=O)[C@H](OC(C)=O)CC[C@@]2(C)[C@@H]1CC(Nc1ccc(S(=O)(=O)Nc2cc(C)on2)cc1)C1=CCOC1=O (stereo partly drawn) and C=C1CCC2C3(C)COC(c4c(OC)cccc4OC)OC3CCC2(C)C1C/C=C1/C(=O)OCC1O (stereo not drawn) are within 1.5-fold of each other in TGI: 3290 nM for the first, 3350 nM for the second.

First: Fc1ccc(-c2nn3c(-c4cc(C(F)(F)F)cc(C(F)(F)F)c4)nnc3s2)cc1
Second: Nc1ccc(-c2nnc(SCc3ccc(O)c4ncccc34)o2)cc1
The TGI of the first is higher: over 50000 nM for the first, 1160 nM for the second.

Going from CCCCCCCCCCC/C=C\C[C@H](O)C/C=C1/C(=O)C=C[C@@H]1C/C=C\CCCC(=O)OC to CCC(C)[C@H](NC(=O)NC(=O)NC(=O)CI)C(=O)OC (stereo partly drawn), the TGI rises from 3760 nM to 12600 nM (3.4-fold).

Compared with CO[C@]12C=C/C(=C(/C(=O)OCc3cccnc3)C(=O)CCCCCCCC[C@@]3(OC)C=C/C(=C(/C(=O)OCc4cccnc4)C(=O)CCCCCCCC1)O3)O2, c1ccc(Nc2nc(-c3ccccn3)cs2)nc1 is 5-fold higher in TGI: 2300 nM for the first, 11500 nM for the second.

With Cc1cc2nc3ccc(=[N+](C)C)cc-3sc2cc1N the GI50 was 455 nM and 618 nM.

In the case of Cc1cc2nc3ccc(=[N+](C)C)cc-3sc2cc1N, the TGI is reported as 2180 nM and 3820 nM.

For COC(C(=O)C(O)C(C)O)C1Cc2cc3cc(OC4CC(OC5CC(O)C(O)C(C)O5)C(O)C(C)O4)c(C)c(O)c3c(O)c2C(=O)C1OC1CC(OC2CC(O)C(OC3CC(C)(O)C(O)C(C)O3)C(C)O2)C(O)C(C)O1 (stereo not drawn), the outcome was “inactive”.
